Measured values from publication PMC11085308, “Design, Synthesis and Biological Activity of Novel Methoxy- and Hydroxy-Substituted N-Benzimidazole-Derived Carboxamides” (Molecules, 2024).
Values after ≈ are worked out from the molar mass of the structure shown.

Experiments:
S. aureus ATCC 29213 = assay: Antibacterial activity in vitro, broth microdilution MIC; format: cell-based, Staphylococcus aureus; details: for MIC S. aureus ATCC 29213: broth microdilution, 16–24 h at 37 °C, unit inferred
Method: (§1) The in vitro antibacterial activity of the synthesized benzamides 7–12 and 31–37 was evaluated against a panel of eight different bacterial strains. The Gram-positive bacterial strains comprised S. aureus, S. pneumoniae and E. faecalis, and the panel of Gram-negative bacteria consisted of E. coli, K. pneumoniae, A. baumannii and P. aeruginosa.
(§2) The selected bacterial strains were Gram-negative Escherichia coli (ATCC 25922) and Gram-positive Staphylococcus aureus (ATCC 29213) and S. Pneumoniae (ATCC 49619). The Saccharomyces cerevisiae ATCC 7752 strain was tested as a eukaryotic model organism. Synthesized compounds were prepared as 10 mM DMSO solutions and tested in a final concentration range of 100–0.2 µM [39].
(§3) Broth microdilution testing was performed according to CLSI (Clinical Laboratory Standards Institute) guidelines. The MIC (minimal inhibitory concentration) value was defined as the last tested concentration of a compound at which there is no visible growth of bacteria. Inoculums for each microorganism were prepared using the direct colony suspension method, where broth solutions that achieved turbidity equivalent to 0.5 McFarland standards were additionally diluted 100× with cation-adjusted MH media (Becton Dickinson). All test plates were incubated for 16–24 h at 37 °C.

A. baumannii ATCC 17978 = assay: as above; format: cell-based; details: 16–24 h at 37 °C, unit inferred
Method: as §1, §2, §3

E. faecalis ATCC 29212 = assay: as above; format: cell-based; details: for MIC E. faecalis ATCC 29212: broth microdilution, 16–24 h at 37 °C, unit inferred
Method: as §1, §2, §3

P. aeruginosa ATCC 27853 = assay: as above; format: cell-based; details: 16–24 h at 37 °C, unit inferred
Method: as §1, §2, §3

E. coli efflux del. = assay: microbe, parasite or virus in culture; format: cell-based, Escherichia coli; details: broth microdilution, 16–24 h at 37 °C; unit inferred
Method: as §1, §2, §3

H460 (lung carcinoma) = assay: Antiproliferative activity in vitro, MTT assay, 72 h; format: cell-based; details: Homo sapiens, NCI-H460, 72 h incubation
Method: (§4) The experiments were carried out on four human cell lines which are derived from three cancer types: H460 (lung carcinoma), HCT 116 (colorectal carcinoma), MCF-7 (human breast cancer) and the non-cancerous cell line HEK 293 (human embryonic kidney).
(§5) The results are compared with the known antiproliferative agents doxorubicin and etoposide. […] Therefore, it is not clear whether the observed antiproliferative activity is due to the biological activity of the compounds or to precipitation.
(§6) The experiments were performed on four human cell lines, including HCT 116 (colon carcinoma), H 460 (lung carcinoma), MCF-7 (breast carcinoma) and HEK 293 (human embryonic kidney cells), in line with previously published experimental procedures. Briefly, the cells were grown in DMEM medium with the addition of 10% fetal bovine serum (FBS), 2 mM of L-glutamine, 100 U/mL of penicillin and 100 µg/mL of streptomycin and cultured as monolayers at 37 °C in a humidified atmosphere with 5% CO2. Cells were seeded at 2 × 10^3 cells/well in standard 96-well microtiter plates and left to attach for 24 h. The next day, a test compound was added in five serial 10-fold dilutions. The rate of cell growth was evaluated after 72 h of incubation with MTT assays. […] Each test was performed in quadruplicate in at least two individual experiments.

[1] = system: HCT 116 (colorectal carcinoma); assay: as above; format: cell-based; details: Homo sapiens, 72 h incubation, '-' with footnote a = did not show biological activity due to precipitation
Method: as §4, §5, §6

[2] = system: MCF-7 (human breast cancer); assay: as above; format: cell-based; details: MCF7, 72 h incubation
Method: as §4, §5, §6

[3] = system: HEK 293 (human embryonic kidney); assay: Antiproliferative activity in vitro, MTT assay, 72 h, non-cancerous cell line; format: cell-based; details: HEK293, 72 h incubation, '-' with footnote a = did not show biological activity due to precipitation
Method: as §4, §5, §6

[4] = Ferric reducing/antioxidant power (FRAP assay); design: FRAP: unit not given here; details: for FRAP: Fe2+ equivalents, triplicate; for FRAP ferric reducing/antioxidant power, in words: compared to the standard BHT
Method: (§7) The synthesized benzazole acrylonitrile derivatives were screened for their antioxidative potency by using in vitro assays, namely DPPH and ABTS as free radical scavenging assays and FRAP as a ferric reducing/antioxidant power assay.
The antioxidant activity of a substance is directly related to its reducing power.
The FRAP method was carried out according to previously described procedures with some modifications to make it compatible with an assay on a 96-well microplate. All results were expressed as Fe^2+ equivalents (Fe^2+ µmol). Ferrous sulphate (FeSO4 × 7H2O) was used to develop a standard curve of 20–2000 µmol/l for the FRAP test.

[5] = DPPH free radical scavenging assay; details: compared to the standard BHT
Text: as §7
The well-known antioxidant butylated hydroxytoluene (BHT) was used as a standard for comparing activity during testing. The DPPH assay is a standard commonly used test for the in vitro assessment of the antioxidant capacity of novel compounds by using their ability to scavenge the stable radical 1,1-diphenyl-picrylhydrazyl. […] Another test used to evaluate the antioxidative capacity of novel compounds was the ABTS test, by which their activity was evaluated by scavenging the stable radical 3-ethylbenzthiazoline-6-sulphonic acid.
Determination of the reducing activity of the stable radical 1,1-diphenyl-picrylhydrazyl (DPPH):
The reducing activity of the investigated systems was measured by the DPPH method according to previously described procedures with modifications to ensure their use on a 96-well microplate. Briefly, equal volumes of various concentrations of the tested molecules (dissolved in DMSO) were added to a solution of DPPH (final concentration of 50 µM in absolute ethanol). Ethanol and DMSO were used as control solutions in line with earlier reports. The radical scavenging activity was calculated using the following formula:[(A517 control − A517 compound)/A517 control] × 100.
The IC50 values were calculated from dose–response curves using nonlinear regression analysis with the GraphPad Prism 8 Ink. program. All measurements were carried out in triplicate.

E. coli ATCC 25922 = assay: Antibacterial activity in vitro, broth microdilution MIC; format: cell-based, Escherichia coli; details: 16–24 h at 37 °C, unit inferred
Method: as §1, §2, §3

| Structure (SMILES) | MIC S. aureus ATCC 29213 (S. aureus ATCC 29213) | MIC A. baumannii ATCC 17978 (A. baumannii ATCC 17978) | MIC E. faecalis ATCC 29212 (E. faecalis ATCC 29212) | MIC P. aeruginosa ATCC 27853 (P. aeruginosa ATCC 27853) | MIC E. coli efflux del. (E. coli efflux del.) | IC50 (H460 (lung carcinoma)) | IC50 [1] | IC50 [2] | IC50 [3] | FRAP [4] | FRAP ferric reducing/antioxidant power, in words [4] | DPPH free radical scavenging activity, in words [5] | MIC (E. faecalis ATCC 29212; Enterococcus faecalis, ATCC29212, read-out: MIC E. faecalis) | Selectivity of antibacterial activity, in words (E. faecalis ATCC 29212; against the Gram-positive strain E. faecalis) | MIC E. coli ATCC 25922 (E. coli ATCC 25922) | MIC (S. aureus ATCC 29213; Staphylococcus aureus, ATCC29213, read-out: MIC S. aureus) | melting point |
| --- | --- | --- | --- | --- | --- | --- | --- | --- | --- | --- | --- | --- | --- | --- | --- | --- | --- |
| CC(C)(O/N=C(\C(=O)N[C@@H]1C(=O)N2C(C(=O)[O-])=C(C[n+]3ccccc3)CS[C@H]12)c1csc(N)n1)C(=O)O [Ceftazidime, ceftazidime, reference compound] | 4 µM (≈ 2.19 µg/mL) | 4 µM (≈ 2.19 µg/mL) | > 64 µM | 2 µM (≈ 1.09 µg/mL) |  |  |  |  |  |  |  |  |  |  |  |  |  |
| CN(C)[C@@H]1C(O)=C(C(N)=O)C(=O)[C@@]2(O)C(O)=C3C(=O)c4c(O)cccc4[C@@](C)(O)[C@H]3C[C@@H]12 [Tetracycline, tetracycline, reference compound] |  |  |  |  | 32 µM (≈ 14.2 µg/mL) |  |  |  |  |  |  |  |  |  |  |  |  |
| COc1c(O)cc(C(=O)Nc2nc3ccccc3[nH]2)cc1O [Compound 8, N-(1H-benzo[d]imidazol-2-yl)-3,5-dihydroxy-4-methoxybenzamide] | > 64 µM | > 64 µM | 8 µM (≈ 2.39 µg/mL) | > 64 µM | > 64 µM | 91800 ± 1000 nM | > 100000 nM | 52900 ± 16000 nM | 49400 ± 3300 nM | 2461.93 ± 21.42 | excellent in vitro antioxidant activity | significantly improved | 8 µM (≈ 2.39 µg/mL) | selective antibacterial activity | > 64 µM |  |  |
| C[C@@H](O)[C@H]1C(=O)N2C(C(=O)O)=C(S[C@@H]3CN[C@H](C(=O)N(C)C)C3)[C@H](C)[C@H]12 [Meropenem, meropenem, reference compound] | < 0.125 µM | 0.5 µM (≈ 0.192 µg/mL) | 8 µM (≈ 3.07 µg/mL) | 1 µM (≈ 0.383 µg/mL) | < 0.125 µM |  |  |  |  |  |  |  |  |  | < 0.125 µM |  |  |
| CC(C)Cn1c(NC(=O)c2cc(O)c(O)c(O)c2)nc2ccccc21 [Compound 33, 3,4,5-Trihydroxy-N-(1-isobutyl-1H-benzo[d]imidazol-2-yl)benzamide] | 32 µM (≈ 10.9 µg/mL) | > 64 µM | 64 µM (≈ 21.8 µg/mL) | > 64 µM | 64 µM (≈ 21.8 µg/mL) | > 100000 nM | 43200 ± 18600 nM | 90800 ± 1600 nM | 77100 ± 7900 nM | 4154.35 ± 1.26 | excellent in vitro antioxidant activity | significantly improved |  |  | > 64 µM | 32 µM (≈ 10.9 µg/mL) | 291 to 293 °C |
| CC1(C)S[C@@H]2[C@H](NC(=O)[C@H](N)c3ccccc3)C(=O)N2[C@H]1C(=O)O [Ampicillin, ampicillin, reference compound] | 0.5 µM (≈ 0.175 µg/mL) | 32 µM (≈ 11.2 µg/mL) | 1 µM (≈ 0.349 µg/mL) | > 64 µM |  |  |  |  |  |  |  |  |  |  |  |  |  |
| CC[C@H]1OC(=O)[C@H](C)[C@@H](O[C@H]2C[C@@](C)(OC)[C@@H](O)[C@H](C)O2)[C@H](C)[C@@H](O[C@@H]2O[C@H](C)C[C@H](N(C)C)[C@H]2O)[C@](C)(O)C[C@@H](C)CN(C)[C@H](C)[C@@H](O)[C@]1(C)O [Azithromycin, azithromycin, reference compound] | 1 µM (≈ 0.749 µg/mL) | 8 µM (≈ 5.99 µg/mL) | 8 µM (≈ 5.99 µg/mL) | 32 µM (≈ 24 µg/mL) | 0.5 µM (≈ 0.374 µg/mL) |  |  |  |  |  |  |  |  |  | 4 µM (≈ 3 µg/mL) |  |  |
| COc1cc([C@@H]2c3cc4c(cc3[C@@H](O[C@@H]3O[C@@H]5CO[C@@H](C)O[C@H]5[C@H](O)[C@H]3O)[C@H]3COC(=O)[C@H]23)OCO4)cc(OC)c1O [Etoposide, etoposide, reference compound] |  |  |  |  |  | 2200 ± 400 nM | 2200 ± 400 nM | 600 ± 100 nM | 650 ± 20 nM |  |  |  |  |  |  |  |  |
| NC[C@H]1O[C@H](O[C@H]2[C@H](O)[C@@H](O[C@H]3O[C@H](CO)[C@@H](O)[C@H](N)[C@H]3O)[C@H](N)C[C@@H]2N)[C@H](N)C[C@@H]1O [Tobramycin, reference compound] | 0.25 µM (≈ 0.117 µg/mL) | 2 µM (≈ 0.935 µg/mL) | 8 µM (≈ 3.74 µg/mL) | 0.5 µM (≈ 0.234 µg/mL) | 1 µM (≈ 0.468 µg/mL) |  |  |  |  |  |  |  |  |  | 1 µM (≈ 0.468 µg/mL) |  |  |
| O=C(O)c1cn(C2CC2)c2cc(N3CCNCC3)c(F)cc2c1=O [Ciprofloxacin, ciprofloxacin, reference compound] | 0.25 µM (≈ 0.0828 µg/mL) |  | 4 µM (≈ 1.33 µg/mL) |  |  |  |  |  |  |  |  |  |  |  |  |  |  |
| COc1cccc2c1C(=O)c1c(O)c3c(c(O)c1C2=O)C[C@@](O)(C(=O)CO)C[C@@H]3O[C@H]1C[C@H](N)[C@H](O)[C@H](C)O1 [Doxorubicin, doxorubicin, reference compound] |  |  |  |  |  | 40 ± 10 nM | 40 ± 10 nM | 9 ± 4 nM | 20 ± 10 nM |  |  |  |  |  |  |  |  |
| CNC(C)C1CCC(N)C(OC2C(N)CC(N)C(OC3OCC(C)(O)C(NC)C3O)C2O)O1 (stereo not shown) [Gentamicin, gentamicin, reference compound] | 0.25 µM (≈ 0.119 µg/mL) | 4 µM (≈ 1.91 µg/mL) | 16 µM (≈ 7.64 µg/mL) | 2 µM (≈ 0.955 µg/mL) | 1 µM (≈ 0.478 µg/mL) |  |  |  |  |  |  |  |  |  | 0.5 µM (≈ 0.239 µg/mL) |  |  |
